Measurements from the supplement of paper PMC4862054.

Experiments:
Test in all cases: normalised viability (% of control), CellTiter-Blue; higher = more viable cells (about 100 = DMSO control)
Conditions in all cases: incubation time: 72 h
CAL-51 [1] = system: CAL-51
Method: (§1)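 DSRT, CellTiter-Blue viability, 72 h incubation. Signal is normalised to DMSO and benzethonium chloride controls. Value is the normalised response at dose 3.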

MDA-MB-231 = system: MDA-MB-231
Method: as §1

CAL-120 [2] = system: CAL-120
Method: as §1

MDA-MB-436 [3] = system: MDA-MB-436
Method: as §1

DU-4475 [4] = system: DU-4475
Method: as §1

HCC1937 [5] = system: HCC1937
Method: as §1

MDA-MB-453 = system: MDA-MB-453
Method: as §1

HCC1599 [6] = system: HCC1599
Method: as §1

MDA-MB-468 = system: MDA-MB-468
Method: as §1

CAL-85-1 = system: CAL-85-1
Method: as §1

MFM-223 [7] = system: MFM-223
Method: as §1

HDQ-P1 [8] = system: HDQ-P1
Method: as §1

BT-549 [9] = system: BT-549
Method: as §1

BT-474 = system: BT-474
Method: as §1

HCC1143 [10] = system: HCC1143
Method: as §1

SK-BR-3 [11] = system: SK-BR-3
Method: as §1

Hs578T = system: Hs578T
Method: as §1

CAL-148 [12] = system: CAL-148
Method: as §1

CAL-51 [13] = system: CAL-51; remark: listed apart in the source
Method in brief: (§2)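 Normalised viability is given for a single listed concentration of the series. In 384-well plates, breast cancer cell lines were incubated 72 h with compound, then read with CellTiter-Blue (2 h, 37 °C) at 560/590 nm. Per-plate scaling set vehicle to 100 and a positive kill control to 0, with Z'-factor quality control.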

CAL-120 [14] = system: CAL-120; remark: listed apart in the source
Method in brief: as §2

MDA-MB-436 [15] = system: MDA-MB-436; remark: listed apart in the source
Method in brief: as §2

DU-4475 [16] = system: DU-4475; remark: listed apart in the source
Method in brief: as §2

HCC1937 [17] = system: HCC1937; remark: listed apart in the source
Method in brief: as §2

HCC1599 [18] = system: HCC1599; remark: listed apart in the source
Method in brief: as §2

MFM-223 [19] = system: MFM-223; remark: listed apart in the source
Method in brief: as §2

HDQ-P1 [20] = system: HDQ-P1; remark: listed apart in the source
Method in brief: as §2

BT-549 [21] = system: BT-549; remark: listed apart in the source
Method in brief: as §2

HCC1143 [22] = system: HCC1143; remark: listed apart in the source
Method in brief: as §2

SK-BR-3 [23] = system: SK-BR-3; remark: listed apart in the source
Method in brief: as §2

CAL-148 [24] = system: CAL-148; remark: listed apart in the source
Method in brief: as §2

COC1=CC(c2cc3ccccc3[nH]2)=N/C1=C\c1[nH]c(C)cc1C [Obatoclax]
Conditions | normalised viability [%]
BT-474, 100 nM | 70.7
BT-549 [9], 100 nM | 62.9
BT-549 [21], 10 nM | 78.7
BT-549 [21], 1000 nM | 30.3
BT-549 [21], 10000 nM | 17.7
CAL-51 [1], 10 nM | 109
CAL-51 [13], 3 nM | 107
CAL-51 [13], 30 nM | 101
CAL-51 [13], 100 nM | 101
CAL-85-1, 10 nM | 89.4
CAL-120 [2], 100 nM | 25.9
CAL-120 [14], 10 nM | 75.5
CAL-120 [14], 1000 nM | 9.72
CAL-120 [14], 10000 nM | 8.54
CAL-148 [12], 10 nM | 87.7
CAL-148 [24], 3 nM | 84.7
CAL-148 [24], 30 nM | 87.9
CAL-148 [24], 100 nM | 87.2
DU-4475 [4], 10 nM | 87.7
DU-4475 [16], 3 nM | 86.3
DU-4475 [16], 30 nM | 73.7
DU-4475 [16], 100 nM | 88.2
HCC1143 [10], 100 nM | 78
HCC1143 [22], 10 nM | 69
HCC1143 [22], 1000 nM | 47.1
HCC1143 [22], 10000 nM | 33.1
HCC1599 [6], 100 nM | 93.4
HCC1599 [18], 10 nM | 95.4
HCC1599 [18], 1000 nM | 64
HCC1599 [18], 10000 nM | 44.9
HCC1937 [5], 100 nM | 45.9
HCC1937 [17], 10 nM | 63
HCC1937 [17], 1000 nM | 21.4
HCC1937 [17], 10000 nM | 20
HDQ-P1 [8], 10 nM | 90.4
HDQ-P1 [20], 3 nM | 85.3
HDQ-P1 [20], 30 nM | 94.9
HDQ-P1 [20], 100 nM | 68.8
Hs578T, 100 nM | 73.4
MDA-MB-231, 100 nM | 47.7
MDA-MB-436 [3], 100 nM | 58.7
MDA-MB-436 [15], 10 nM | 76.7
MDA-MB-436 [15], 1000 nM | 38.2
MDA-MB-436 [15], 10000 nM | 21.5
MDA-MB-453, 10 nM | 80.6
MDA-MB-468, 100 nM | 69
MFM-223 [7], 100 nM | 71.7
MFM-223 [19], 10 nM | 72.7
MFM-223 [19], 1000 nM | 54.4
MFM-223 [19], 10000 nM | 25.6
SK-BR-3 [11], 100 nM | 43.3
SK-BR-3 [23], 10 nM | 80.2
SK-BR-3 [23], 1000 nM | 27.1
SK-BR-3 [23], 10000 nM | 21.2

CC(=O)O[C@H]1C(=O)[C@@]2(C)[C@H]([C@H](OC(=O)c3ccccc3)[C@]3(O)C[C@H](OC(=O)[C@H](O)[C@@H](NC(=O)c4ccccc4)c4ccccc4)C(C)=C1C3(C)C)[C@]1(OC(C)=O)CO[C@@H]1C[C@@H]2O [Paclitaxel]
Conditions | normalised viability [%]
BT-474, 10 nM | 54.3
BT-549 [9], 10 nM | 31.9
BT-549 [21], 1 nM | 83.7
BT-549 [21], 100 nM | 21.1
BT-549 [21], 1000 nM | 20.4
CAL-51 [1], 1 nM | 91.8
CAL-51 [13], 0.3 nM | 95.1
CAL-51 [13], 3 nM | 82.9
CAL-51 [13], 10 nM | 57.9
CAL-85-1, 1 nM | 103
CAL-120 [2], 10 nM | 36.9
CAL-120 [14], 1 nM | 89.7
CAL-120 [14], 100 nM | 23.6
CAL-120 [14], 1000 nM | 22.7
CAL-148 [12], 1 nM | 103
CAL-148 [24], 0.3 nM | 106
CAL-148 [24], 3 nM | 72.6
CAL-148 [24], 10 nM | 51.2
DU-4475 [4], 1 nM | 97.6
DU-4475 [16], 0.3 nM | 108
DU-4475 [16], 3 nM | 95.5
DU-4475 [16], 10 nM | 64.8
HCC1143 [10], 10 nM | 54.6
HCC1143 [22], 1 nM | 104
HCC1143 [22], 100 nM | 34.5
HCC1143 [22], 1000 nM | 32.5
HCC1599 [6], 10 nM | 104
HCC1599 [18], 1 nM | 113
HCC1599 [18], 100 nM | 86.7
HCC1599 [18], 1000 nM | 69.6
HCC1937 [5], 10 nM | 36.4
HCC1937 [17], 1 nM | 91.1
HCC1937 [17], 100 nM | 15.3
HCC1937 [17], 1000 nM | 19.7
HDQ-P1 [8], 1 nM | 60.8
HDQ-P1 [20], 0.3 nM | 88.2
HDQ-P1 [20], 3 nM | 55.6
HDQ-P1 [20], 10 nM | 46.1
Hs578T, 10 nM | 26
MDA-MB-231, 10 nM | 35.7
MDA-MB-436 [3], 10 nM | 52.2
MDA-MB-436 [15], 1 nM | 100
MDA-MB-436 [15], 100 nM | 50.5
MDA-MB-436 [15], 1000 nM | 42.2
MDA-MB-453, 1 nM | 107
MDA-MB-468, 10 nM | 52.1
MFM-223 [7], 10 nM | 55.8
MFM-223 [19], 1 nM | 98.2
MFM-223 [19], 100 nM | 45.1
MFM-223 [19], 1000 nM | 51.7
SK-BR-3 [11], 10 nM | 25.9
SK-BR-3 [23], 1 nM | 84.8
SK-BR-3 [23], 100 nM | 13.9
SK-BR-3 [23], 1000 nM | 12.9

CC(C)(C)c1cc(NC(=O)Nc2ccc(-c3cn4c(n3)sc3cc(OCCN5CCOCC5)ccc34)cc2)no1 [Quizartinib]
Conditions | normalised viability [%]
BT-474, 10 nM | 94.6
BT-549 [9], 10 nM | 101
BT-549 [21], 1 nM | 89.4
BT-549 [21], 100 nM | 95.1
BT-549 [21], 1000 nM | 44
CAL-51 [1], 1 nM | 107
CAL-51 [13], 0.3 nM | 115
CAL-51 [13], 3 nM | 106
CAL-51 [13], 10 nM | 110
CAL-85-1, 1 nM | 101
CAL-120 [2], 10 nM | 94.4
CAL-120 [14], 1 nM | 93.8
CAL-120 [14], 100 nM | 96.6
CAL-120 [14], 1000 nM | 96.6
CAL-148 [12], 1 nM | 100
CAL-148 [24], 0.3 nM | 98.1
CAL-148 [24], 3 nM | 102
CAL-148 [24], 10 nM | 96.2
DU-4475 [4], 1 nM | 109
DU-4475 [16], 0.3 nM | 95.8
DU-4475 [16], 3 nM | 98.6
DU-4475 [16], 10 nM | 93.3
HCC1143 [10], 10 nM | 95.2
HCC1143 [22], 1 nM | 94.3
HCC1143 [22], 100 nM | 95.8
HCC1143 [22], 1000 nM | 94.9
HCC1599 [6], 10 nM | 116
HCC1599 [18], 1 nM | 119
HCC1599 [18], 100 nM | 105
HCC1599 [18], 1000 nM | 63.6
HCC1937 [5], 10 nM | 81.7
HCC1937 [17], 1 nM | 59.2
HCC1937 [17], 100 nM | 81.8
HCC1937 [17], 1000 nM | 99.8
HDQ-P1 [8], 1 nM | 91.8
HDQ-P1 [20], 0.3 nM | 94.2
HDQ-P1 [20], 3 nM | 103
HDQ-P1 [20], 10 nM | 98.8
Hs578T, 10 nM | 69.5
MDA-MB-231, 10 nM | 91.3
MDA-MB-436 [3], 10 nM | 110
MDA-MB-436 [15], 1 nM | 104
MDA-MB-436 [15], 100 nM | 45.7
MDA-MB-436 [15], 1000 nM | 87.6
MDA-MB-453, 1 nM | 99
MDA-MB-468, 10 nM | 104
MFM-223 [7], 10 nM | 86
MFM-223 [19], 1 nM | 86
MFM-223 [19], 100 nM | 86.4
MFM-223 [19], 1000 nM | 83.8
SK-BR-3 [11], 10 nM | 91
SK-BR-3 [23], 1 nM | 88.4
SK-BR-3 [23], 100 nM | 93.5
SK-BR-3 [23], 1000 nM | 96.5
